# In patent US4083953A, “Pharmaceutical composition containing 5:6-benzo-alpha-pyrone derivatives and method of use thereof” (Carlo Erba, S.p.A., priority 1973, dated 1978):
# Where two headings read alike, the source gives them in different places.
# Columns and labels:
# Type in all cases: in vivo
# stress-induced ulcers = experiment: inhibition of stress-induced ulcers in rats (restraint in a water bath at 25° for 40 minutes); details: 50 mg/kg i.v.
# [1] = system: bronchoconstrictive effect of 5-HT; experiment: antagonism of the bronchoconstrictive effect of 5-HT in rats; details: 3 mg/kg i.v.
# [2] = system: bronchoconstrictive effect of compound 48/80 (histamine releasing drug); experiment: antagonism of the bronchoconstrictive effect of compound 48/80 in rats; details: 3 mg/kg i.v.
# [3] = system: passive cutaneous anaphylaxis (PCA); experiment: passive cutaneous anaphylaxis (PCA) test in rats, oral; details: Rattus norvegicus, 50 mg/kg p.o., read-out: % Inhibition In Comparison With Controls
# Source text: They can be therefore used in prevention and treatment of bronchial asthma, allergic rhinitis, hay fever, urticaria and dermatosis.
# [4] = system: airway resistance and pulmonary compliance; experiment: airway resistance and pulmonary compliance in rats (technique of Palecek et al.); details: dosage as low as 3 mg/kg i.v.
# Source text: In addition to anti-allergic activity, the compounds of this invention are effective in decreasing the airway resistance and in increasing pulmonary compliance, and can be therefore used for the treatment of respiratory insufficiency, such as, for example, acute pulmonary insufficiency, as shown by the results obtained in rats using the technique described by Palecek F., Palecekova M., and Aviado D. M. (Arch. Environ. Health, 1967, 15:332-342).
SMILES,inhibition of the stress-induced ulcers (stress-induced ulcers) [%],antagonizing the bronchoconstrictive effect of 5-HT [1] [%],antagonizing the bronchoconstrictive effect of compound 48/80 [2] [%],"inhibition in vivo at 50 mg/kg ([3]; 0.25 h, 15 min. pretreatment) [%]","inhibition in vivo at 50 mg/kg ([3]; 0.5 h, 30 min. pretreatment) [%]","inhibition in vivo at 50 mg/kg ([3]; 1 h, 60 min. pretreatment) [%]","inhibition in vivo at 50 mg/kg ([3]; 2 h, 120 min. pretreatment) [%]",effect on airway resistance [4],effect on pulmonary compliance [4]
CC(C)Oc1ccccc1-c1cc(=O)c2cc(C(=O)[O-])ccc2o1.[Na+] [6-carboxy-2'-isopropoxy-flavone sodium salt],45,–,–,–,–,–,–,–,–
CC(C)Oc1ccccc1-c1cc(=O)c2cc(C(=O)O)ccc2o1 [6-carboxy-2'-isopropoxy-flavone],–,50,50,82.9,39.5,27.6,24.4,lower the airway resistance,increase pulmonary compliance
O=C(O)c1ccc2oc(-c3cnccn3)cc(=O)c2c1 [6-carboxy-2-(2'-pyrazinyl)-chromone],–,–,–,87,47.3,31.9,26.3,–,–
O=C(O)c1ccc2oc(C=Cc3ccccc3)cc(=O)c2c1 [6-carboxy-2-(β-phenyl-vinyl)-chromone],–,–,–,69.9,45.8,19.6,16.6,–,–
O=C(O)c1ccc2oc(-c3cccc(Cl)c3)cc(=O)c2c1 [6-carboxy-3'-chloro-flavone],–,–,–,31,22.3,5.9,2.1,–,–
O=C(O)c1ccc2oc(-c3ccc(O)cc3)cc(=O)c2c1 [6-carboxy-4'-hydroxy-flavone],–,–,–,9.2,4,3.7,3.9,–,–
O=C(O)c1ccc2oc(-c3ccccc3)cc(=O)c2c1 [6-carboxy-flavone],–,–,–,32.1,23.5,6.8,3.4,–,–
"O=C(O)c1ccc2oc3ccc(OCCO)cc3c(=O)c2c1 [AH 7725, 2-carboxy-7-hydroxyethoxy-xanthone]",–,–,–,42.6,14.4,13.3,3.8,–,–
"O=C(O)c1cc(=O)c2c(OCC(O)COc3cccc4oc(C(=O)O)cc(=O)c34)cccc2o1 [DSCG, disodium cromoglycate]",–,–,–,6,5.5,3.2,2.5,–,–
